Results on 15 compounds are retold here after PMC6902048, “UGT85A84 Catalyzes the Glycosylation of Aromatic Monoterpenes in Osmanthus fragrans Lour. Flowers” (Frontiers in Plant Science, 2019).

For experiment [1], the system named is UGTs from Camellia sinensis. More on the design: method as in Shoji et al., 2015. The following applies: enzymes not named, ref Shoji et al., 2015; cited from earlier work.
For experiment [2], the system named is CsGT1. Also on record: method as in Shoji et al., 2015. The settings on record: geraniol = 100%; ref Shoji et al., 2015; cited from earlier work.
In experiment [3] the test system is UGTs from Actinidia deliciosa. More on the design: method as in Yar-Khing et al., 2014. The following applies: Actinidia deliciosa UGT; ref Yar-Khing et al., 2014; cited from earlier work.
Experiment [4] deals with UGT85A84. Briefly: OfUGT85A84 enzyme assay with purified recombinant protein (LC-MS, Michaelis-Menten fitting). Type of experiment: biochemical, Osmanthus fragrans. The settings on record: for Glycosylated products formed with the sugar donor (LC-MS): 0.5 mM sugar donor with 0.5 mM linalool or linalool oxide, 1 h or 16 h incubation at 37°C. On the procedure:
The full-length UGT85A84 ORF was amplified and cloned into the pET21b and pET15b expression vectors (Novagen) using the primers listed in Table S2 . The two plasmids were co-transformed into Escherichia. coli BL21 (DE3) pLysS cells (Promega, Madison, WI, USA). The co-transformed cells were cultured in lysogeny broth medium supplemented with 100 µg/ml ampicillin at 37°C until OD600 approached 1.0–1.2. The temperature was then shifted to 16°C, and the cells were incubated with 0.2 mM isopropyl β-D-1-thiogalactopyranoside for 16 h. Subsequently, the cells were harvested by centrifugation, resuspended in lysis buffer (pH 8.0) containing 25 mM Tris-HCl and 150 mM NaCl and lysed by a JN-02 homogenizer. […] The eluted protein was further purified by anion-exchange chromatography (Source 15Q 10/100, GE Healthcare) with a linear NaCl gradient in the buffer (pH 8.0) containing 25mM Tris-HCl, 1M NaCl, and 2mM dithiothreitol. Then, the elution peak was concentrated to 1 ml and subjected to size-exclusion chromatography (Superdex-200 Increase 10/300, GE Healthcare) in the buffer (pH 8.0) containing 25mM Tris-HCl, 150mM NaCl, and 5mM dithiothreitol (DTT). The purity of the protein was analyzed by sodium dodecyl sulfate polyacrylamide gel electrophoresis (SDS-PAGE) and the protein was quantified using a NanoDrop 2000 spectrophotometer (Thermo Scientific, USA). Enzymatic activity assays were carried out according to the description by [Shoji et al. (2015)] with modification. […] After incubation of the mixture at 37°C for 16 h, the reaction was terminated by the addition of 1 µl of 24% trichloroacetic acid (TCA). Except for the concentrations of substrates, the same assay conditions were used for measuring the UGT85A84 kinetic parameters. […] All the reactions were incubated at 37°C for 1 h and repeated in triplicate. The reaction products were subjected to LC-MS analysis. The apparent K m and k cat values for each aglycone and sugar donor were determined by Michaelis-Menten fitting in OriginPro 9.1 software. LC-MS analysis was performed in the Thermo Scientific™ UltiMate™ 3000RS system. The separation was conducted on a Thermo Scientific™ Syncronis C18 column (100*2.1 mm, 1.7µm) at 40°C. Mobile phases consisted of phase A referring to water with 0.1% formic acid and phase B referring to methanol with 0.1% formic acid. […] The samples were eluted with the following linear gradient: 0–1min, 2% B; 1–5min, 2-95% B; 5–7min, 95% B; 7–7.1, 95–2% B; 7.1–9, 2% B. The MS analysis was performed on a Thermo Scientific™ Q Exactive Plus hybrid quadrupole-Orbitrap benchtop high-resolution mass spectrometer equipped with heated electrospray ionization. […] Identification of target compounds was carried out using Data-Dependent Acquisition (DDA). The HCD collision energy was set at NCE 20 for negative mode and was set at NCE 30 50 80 for positive mode. Quantification was performed in the full scan negative mode.

The subject of experiment [5] is UGTs from Vitis vinifera. Also on record: method as in Friedericke et al., 2014a; Friedericke et al., 2014b. The following applies: several Vitis vinifera UGTs, enzymes not named, ref Friedericke et al., 2014a, 2014b; cited from earlier work.
For experiment [6], the system named is UGT85A84. Put plainly: Transient over-expression of OfUGTs in Nicotiana benthamiana leaves with aglycone infiltration, glycosides by GC-MS. The settings on record: N. benthamiana leaves, 50 µM linalool and 200 µM linalool oxides infiltrated, 4 h; GC-MS after β-glucosidase. In kind it is in vivo, Osmanthus fragrans.
Experimental: Transient expression experiments with Nicotiana benthamiana leaves were performed as described by [Zeng et al. (2016)]. […] Five days after the inoculation, the leaves were infiltrated with different aglycone solutions (50 µM linalool and 200 µM linalool oxides in 0.5 M MES + 1 M MgCl2). Four hours after infiltration, the leaves were detached and frozen at –80°C for glycoside determination ([Yar-Khing et al., 2014]). Glycoside extraction coupled with GC-MS was performed to quantify the glycoside contents according to the previously described methods ([Zheng et al., 2017]).
The experiments of transient over-expression coupled with the substrate injection in N. benthamiana leaves were conducted to investigate the glycosides produced by candidate OfUGTs in planta. The leaves were infiltrated with Super1300-OfUGT or a control construct in the presence of linalool and its oxides. The glycosides were then extracted and purified after incubation. Subsequently, GC-MS analysis calculated the glycoside contents by quantifying the corresponding aglycones released from the glycosides.
The N. benthamiana leaves were infiltrated with a control construct (S1300-GUS) or S1300-OfUGTs in the presence of linalool and its oxides. […] Different letters indicate significant difference as determined by one-way ANOVA followed by LSD t-test (P 0.05).
For experiment [7], the system named is PpUGT85A2. More on the design: method as in Wu et al., 2018. The settings on record: Prunus persica UGT; ref Wu et al., 2018; cited from earlier work.
[8] abbreviates: aglycone as varied substrate, fixed UDP-Glc 0.5 mM.
The mark [9] stands for this setting: aglycone as varied substrate, fixed UDP-Glc 0.5 mM, 37°C, 1 h.

Each structure is given as a SMILES string. Where “and” joins values, the source holds several entries; their conditions need not be identical. Equal values may be shown once.

Usually Km stands for the substrate concentration at which the rate is half of its maximum. On to `CC(C)=CCC/C(C)=C/CO` [geraniol], for which the Km in experiment [1] is 44.2 ± 3 µM; in experiment [3], 76.2 ± 11.1 µM. The “Relative activity of CsGT1 towards substrate” value (shortened to “Relative activity”) in experiment [2] is 100%.

Take `OCc1ccccc1` [benzyl alcohol]: in experiment [2], the “Relative activity” value is listed as 48%.

As for `C[C@@H]1O[C@H](OP(=O)(O)OP(=O)(O)OC[C@H]2O[C@@H](n3ccc(=O)[nH]c3=O)[C@H](O)[C@@H]2O)[C@H](O)[C@H](O)[C@H]1O` [UDP-Rha, UDP-rhamnose], the “Glycosylated products formed with the sugar donor (LC-MS)” value in experiment [4] was “No products were detected”.

As to `CC(C)=CCC[C@H](C)CCO` [S-Citronellol], in experiment [5], the Michaelis constant (Km) is 55 ± 1.3 µM.

Regarding `CC(C)=CCC/C(C)=C/CO[C@@H]1O[C@H](CO)[C@@H](O)[C@H](O)[C@H]1O` [Geranyl β-D-glucopyranoside], in experiment [1], the Km was 78.1 ± 19.6 µM.

Regarding `O=c1ccn([C@@H]2O[C@H](COP(=O)(O)OP(=O)(O)O[C@H]3OC[C@@H](O)[C@H](O)[C@H]3O)[C@@H](O)[C@H]2O)c(=O)[nH]1` [UDP-Xyl, UDP-xylose], the “Glycosylated products formed with the sugar donor (LC-MS)” value in experiment [4] is “No products were detected”.

Regarding `OCCc1ccccc1` [2-PE, 2-phenylethanol], the “Relative activity” value in experiment [2] was 9.2%.

Take `CC(C)=CCCC(C)CCO` (stereo not drawn) [Citronellol]: the Michaelis constant (Km) in experiment [5] is 433 µM and 306 µM and 445 µM.

Regarding `CCCCCCO` [Hexanol], the Km in experiment [3] is 117 ± 28.1 µM.

With `C=CCc1ccc(O)c(OC)c1` [eugenol], in experiment [2], the “Relative activity” value is 84%.

For the compound `C=CC1(C)CCC(C(C)(C)O)O1` (stereo not drawn) [linalool oxide], the “Glycoside of the injected aglycone in UGT85A84-infiltrated leaves versus control” value in experiment [6] is recorded as “remarkable increase”. In experiment [4] (setting [8]), the “k cat/K m” value amounted to 1.0494e+07 M⁻¹ s⁻¹. The k cat in experiment [4] (setting [9]) was 2.12 S ^-1.

For `C=CC(C)(O)CCC=C(C)C` (stereo not drawn) [linalool], in experiment [2], the “Relative activity” value is listed as 1.4%. Also, the “Glycoside of the injected aglycone in UGT85A84-infiltrated leaves versus control” value in experiment [6] is reported as “no significant increase”. The “k cat/K m” value in experiment [4] (setting [8]) worked out at 718000 M⁻¹ s⁻¹. Further, in experiment [4] (setting [9]), the k cat is listed as 0.09 S ^-1. For the same compound, the Michaelis constant (Km) in experiment [4] (aglycone as varied substrate, fixed UDP-Glc 0.5 mM, 37°C, 1 h, mean and SEM, n = 3) is 136 µM; in experiment [7], 463 ± 80 µM.

With `CC/C=C\CCO` [(Z)-3-hexenol], in experiment [2], the “Relative activity” value is given as 62%.

Take `CCCCCC(O)CC` (stereo not drawn) [Octan-3-ol]: in experiment [3], the Michaelis constant (Km) was 66.6 ± 16.2 µM.

On to `C=CC(C)(O)CC/C=C(\C)CO` (stereo not drawn) [8-Hydroxylinalool], for which the Km in experiment [5] was 33 ± 1.8 µM.
